pIC50: −log10 of the molar value. Several values for one entry are separate records, joined by “and”; a condition that tells them apart may be missing. Identical values can stand only once. Blank lines part the entries; values can stand above or below the compound they belong to.
Test system: 233499-124-R-J3-PDC complex spheroid viability
Experiment: Anticancer human tumor 233499-124-R-J3-PDC patient-derived colon adenocarcinoma cell line growth inhibition [CLK]
Settings: for viability, T/C: stronger effect = lower value
Method in brief: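 Multi-cell-type spheroids combined patient-derived tumor cells with HUVEC endothelial cells and human mesenchymal stem cells. Paired agents were dosed in half-log steps down from about clinical Cmax, or from 10 microM where Cmax was unknown.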

[1] = curve of first compound, second compound 0.0316 µM
[2] = curve of first compound, second compound 0.1 µM
[3] = curve of first compound, second compound 0.316 µM
[4] = curve of first compound, second compound 1 µM
[5] = curve of first compound, second compound 3.16 µM
[6] = curve of first compound, second compound 10 µM
[7] = second compound 0.0316 µM, first compound 0.0316 µM
[8] = second compound 0.0316 µM, first compound 0.1 µM
[9] = second compound 0.0316 µM, first compound 0.316 µM
[10] = second compound 0.0316 µM, first compound 1 µM
[11] = second compound 0.0316 µM, first compound 3.16 µM
[12] = second compound 0.0316 µM, first compound 10 µM
[13] = second compound 0.1 µM, first compound 0.0316 µM
[14] = second compound 0.1 µM, first compound 0.1 µM
[15] = second compound 0.1 µM, first compound 0.316 µM
[16] = second compound 0.1 µM, first compound 1 µM
[17] = second compound 0.1 µM, first compound 3.16 µM
[18] = second compound 0.1 µM, first compound 10 µM
[19] = second compound 0.316 µM, first compound 0.0316 µM
[20] = second compound 0.316 µM, first compound 0.1 µM
[21] = second compound 0.316 µM, first compound 0.316 µM
[22] = second compound 0.316 µM, first compound 1 µM
[23] = second compound 0.316 µM, first compound 3.16 µM
[24] = second compound 0.316 µM, first compound 10 µM
[25] = second compound 1 µM, first compound 0.0316 µM
[26] = second compound 1 µM, first compound 0.1 µM
[27] = second compound 1 µM, first compound 0.316 µM
[28] = second compound 1 µM, first compound 1 µM
[29] = second compound 1 µM, first compound 3.16 µM
[30] = second compound 1 µM, first compound 10 µM
[31] = second compound 3.16 µM, first compound 0.0316 µM
[32] = second compound 3.16 µM, first compound 0.1 µM
[33] = second compound 3.16 µM, first compound 0.316 µM
[34] = second compound 3.16 µM, first compound 1 µM
[35] = second compound 3.16 µM, first compound 3.16 µM
[36] = second compound 3.16 µM, first compound 10 µM
[37] = second compound 10 µM, first compound 0.0316 µM
[38] = second compound 10 µM, first compound 0.1 µM
[39] = second compound 10 µM, first compound 0.316 µM
[40] = second compound 10 µM, first compound 1 µM
[41] = second compound 10 µM, first compound 3.16 µM
[42] = second compound 10 µM, first compound 10 µM
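Also: spheroids exposed to the drug combinations for seven days.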
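For viability, T/C in this document: percent viability relative to DMSO vehicle control wells taken as 100%.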

Compound: C=C(F)C(=O)N1CCN(c2nc(OCC3CCCN3C)nc3c2CCN(c2cccc4cccc(Cl)c24)C3)CC1CC#N (stereo unspecified) + CN1CCN(c2cc(C(=O)Nc3cc4cc(-c5cnn(C)c5)ccc4cn3)ccn2)CC1
- pIC50 [1]: < 5.00
- pIC50 [2]: < 5.00
- pIC50 [3]: 5.02
- pIC50 [4]: > 7.50
- pIC50 [5]: > 7.50
- pIC50 [6]: > 7.50
- viability, T/C [7]: 95.2%
- viability, T/C [8]: 104%
- viability, T/C [9]: 91.5%
- viability, T/C [10]: 100%
- viability, T/C [11]: 94.1%
- viability, T/C [12]: 84%
- viability, T/C [13]: 99.6%
- viability, T/C [14]: 90.9%
- viability, T/C [15]: 103%
- viability, T/C [16]: 96%
- viability, T/C [17]: 95.2%
- viability, T/C [18]: 85.1%
- viability, T/C [19]: 93.6%
- viability, T/C [20]: 90.3%
- viability, T/C [21]: 82.9%
- viability, T/C [22]: 98.6%
- viability, T/C [23]: 87.8%
- viability, T/C [24]: 48.6%
- viability, T/C [25]: 1.94%
- viability, T/C [26]: 3.93%
- viability, T/C [27]: 4.58%
- viability, T/C [28]: 0.73%
- viability, T/C [29]: 5.08%
- viability, T/C [30]: 0.83%
- viability, T/C [31]: 0.56%
- viability, T/C [32]: 0.88%
- viability, T/C [33]: 0.69%
- viability, T/C [34]: 0.56%
- viability, T/C [35]: 0.42%
- viability, T/C [36]: 0.12%
- viability, T/C [37]: 0.42%
- viability, T/C [38]: 0.74%
- viability, T/C [39]: 0.44%
- viability, T/C [40]: 0.95%
- viability, T/C [41]: 0.32%
- viability, T/C [42]: 0.72%

- pIC50 [1]: 5.17
- pIC50 [2]: 5.47
- pIC50 [3]: 5.50
- pIC50 [4]: 5.33
- pIC50 [5]: 5.54
- pIC50 [6]: 5.35
Compound: CC1(C)CCC(CN2CCN(c3ccc(C(=O)NS(=O)(=O)c4ccc(NCC5CCOCC5)c([N+](=O)[O-])c4)c(Oc4cnc5[nH]ccc5c4)c3)CC2)=C(c2ccc(Cl)cc2)C1 + CNC(=O)c1ccc(Nc2nc(OC3CCCC3)c3c(-c4ccc5nc(C)oc5c4)c[nH]c3n2)c(OC)c1
- viability, T/C [7]: 79.5%
- viability, T/C [8]: 96.9%
- viability, T/C [9]: 94.3%
- viability, T/C [10]: 106%
- viability, T/C [11]: 96.5%
- viability, T/C [12]: 27.2%
- viability, T/C [13]: 68.9%
- viability, T/C [14]: 70.2%
- viability, T/C [15]: 85%
- viability, T/C [16]: 76.2%
- viability, T/C [17]: 51.6%
- viability, T/C [18]: 20.8%
- viability, T/C [19]: 76.4%
- viability, T/C [20]: 79.6%
- viability, T/C [21]: 81.3%
- viability, T/C [22]: 76.8%
- viability, T/C [23]: 49.9%
- viability, T/C [24]: 25.1%
- viability, T/C [25]: 74.3%
- viability, T/C [26]: 90%
- viability, T/C [27]: 72.1%
- viability, T/C [28]: 68.4%
- viability, T/C [29]: 60.1%
- viability, T/C [30]: 33.5%
- viability, T/C [31]: 77.1%
- viability, T/C [32]: 66.5%
- viability, T/C [33]: 76%
- viability, T/C [34]: 76.6%
- viability, T/C [35]: 47.8%
- viability, T/C [36]: 24.2%
- viability, T/C [37]: 70.1%
- viability, T/C [38]: 71.9%
- viability, T/C [39]: 76.8%
- viability, T/C [40]: 74.9%
- viability, T/C [41]: 59%
- viability, T/C [42]: 29.2%

- pIC50 (curve of compound): < 5.00
Compound: C=CC(=O)N1CCN(c2nc(=O)n(-c3c(C)ccnc3C(C)C)c3nc(-c4c(O)cccc4F)c(F)cc23)C(C)C1 (stereo unspecified)
- viability, T/C (compound 0.0316 µM): 90.5% and 101%
- viability, T/C (compound 0.1 µM): 81.9% and 87.6%
- viability, T/C (compound 0.316 µM): 90.6% and 110%
- viability, T/C (compound 1 µM): 87.6% and 101%
- viability, T/C (compound 3.16 µM): 95% and 104%
- viability, T/C (compound 10 µM): 96% and 92.6%

— PubChem BioAssay AID2060613 (Molecular Pharmacology Branch, DTP, NCI, 2025)
